Reference: ChEMBL document CHEMBL1137511, “Identification of a series of novel derivatives as potent HCV inhibitors by a ligand-based virtual screening optimized procedure” (Bioorg Med Chem, 2007)
pIC50: −log10 of the molar value.

Test: Inhibition of HCV genotype 1 polymerase
Set-up: species or system Hepacivirus hominis

| Compound | pIC50 |
| --- | --- |
| O=c1c(C2=NS(=O)(=O)c3ccccc3N2)c(O)c2ccccc2n1NCC1CCCC1 | 6.13 |
| CCC(CC)Nn1c(=O)c(C2=NS(=O)(=O)c3ccccc3N2)c(O)c2ccccc21 | 5.61 |
| O=c1c(C2=NS(=O)(=O)c3ccccc3N2)c(O)c2ccccc2n1NCC1CCCCCC1 | 5.98 |
| O=c1c(C2=NS(=O)(=O)c3ccccc3N2)c(O)c2cccnc2n1Cc1ccccc1 | 5.24 |
| CC(Nn1c(=O)c(C2=NS(=O)(=O)c3ccccc3N2)c(O)c2ccccc21)c1ccccc1 (configuration not stated) | 4.78 |
| O=c1c(C2=NS(=O)(=O)c3ccccc3N2)c(O)c2ccccc2n1NCC1CCCCC1 | 5.60 |
| CCCC(Nn1c(=O)c(C2=NS(=O)(=O)c3ccccc3N2)c(O)c2ccccc21)C(C)C (configuration not stated) | 5.19 |
| CCCC(CC)Nn1c(=O)c(C2=NS(=O)(=O)c3ccccc3N2)c(O)c2ccccc21 (configuration not stated) | 5.72 |
| O=c1c(C2=NS(=O)(=O)c3ccccc3N2)c(O)c2ccccc2n1NCc1ccccc1 | 5.29 |
| CC(C)Nn1c(=O)c(C2=NS(=O)(=O)c3ccccc3N2)c(O)c2ccccc21 | 5.20 |
| CC(C)CCn1c(=O)c(C2=NS(=O)(=O)c3ccccc3N2)c(O)c2cccnc21 | 6.09 |
| O=c1c(C2=NS(=O)(=O)c3ccccc3N2)c(O)c2ccccc2n1NC1CCCCC1 | 6.45 |
| CC(C)CCn1c(=O)c(C2=NS(=O)(=O)c3cc(OCC(=O)N(C)C)ccc3N2)c(O)c2cccnc21 | 6.03 |
| CC(C)CCn1c(=O)c(C2=NS(=O)(=O)c3cc(NS(C)(=O)=O)ccc3N2)c(O)c2cccnc21 | 8.70 |
| COc1ccc2c(c1)S(=O)(=O)NC(c1c(O)c3cccnc3n(Cc3ccccc3)c1=O)=N2 | 5.08 |
| O=c1c(C2=NS(=O)(=O)c3cccc(O)c3N2)c(O)c2cccnc2n1Cc1ccccc1 | 5.08 |
| Cc1ccc2c(c1)S(=O)(=O)NC(c1c(O)c3cccnc3n(Cc3ccccc3)c1=O)=N2 | 4.59 |

| Compound | pIC50 |
| --- | --- |
| CC(C)CCn1c(=O)c(C2=NS(=O)(=O)c3cc(OCC(=O)O)ccc3N2)c(O)c2cccnc21 | 6.44 |
| O=c1c(C2=NS(=O)(=O)c3cccc(Br)c3N2)c(O)c2cccnc2n1Cc1ccccc1 | 5.21 |
| CCCOc1ccc2c(c1)S(=O)(=O)NC(c1c(O)c3cccnc3n(CCC(C)C)c1=O)=N2 | 5.79 |
| CC(C)CCn1c(=O)c(C2=NS(=O)(=O)c3cc(OCC(=O)OC(C)(C)C)ccc3N2)c(O)c2cccnc21 | 5.30 |
| CNS(=O)(=O)Nc1ccc2c(c1)S(=O)(=O)N=C(c1c(O)c3cccnc3n(NC3CCC3)c1=O)N2 | 4.06 |
| COc1cccc2c1NC(c1c(O)c3cccnc3n(Cc3ccccc3)c1=O)=NS2(=O)=O | 4.74 |
| COc1cccc2c1NC(c1c(O)c3cccnc3n(CCC(C)C)c1=O)=NS2(=O)=O | 4.75 |
| COc1ccc2c(c1)S(=O)(=O)N=C(c1c(O)c3cccnc3n(CCC(C)C)c1=O)N2 | 5.95 |
| O=c1c(C2=NS(=O)(=O)c3ccccc3N2)c(O)c2ccccc2n1NCC1=CCOC=C1 | 5.33 |
| CCCC(CCC)Nn1c(=O)c(C2=NS(=O)(=O)c3ccccc3N2)c(O)c2ccccc21 | 5.65 |
| O=c1c(C2=NS(=O)(=O)c3cc(Br)ccc3N2)c(O)c2cccnc2n1Cc1ccccc1 | 4.78 |
| CC(C)CCn1c(=O)c(C2=NS(=O)(=O)c3cc(NC(=O)C(F)(F)F)ccc3N2)c(O)c2cccnc21 | 6.04 |
| CC(C)CCn1c(=O)c(C2=NS(=O)(=O)c3cc(O)ccc3N2)c(O)c2cccnc21 | 6.41 |
| Cc1cccc2c1N=C(c1c(O)c3cccnc3n(Cc3ccccc3)c1=O)NS2(=O)=O | 5.17 |
| CC(C)CCn1c(=O)c(C2=NS(=O)(=O)c3cc(NCC(N)=O)ccc3N2)c(O)c2cccnc21 | 6.33 |
| CC(C)CCn1c(=O)c(C2=NS(=O)(=O)c3cc(OCCN)ccc3N2)c(O)c2cccnc21 | 3.20 |

The remaining compounds from weak to strong by pIC50, led by results:

| pIC50 | Compound |
| --- | --- |
| 6.51 | CC(C)CCn1c(=O)c(C2=NS(=O)(=O)c3cc(N)ccc3N2)c(O)c2cccnc21 |
| 6.55 | O=c1c(C2=NS(=O)(=O)c3ccccc3N2)c(O)c2ccccc2n1NCC1CC1 |
| 6.56 | O=c1c(C2=NS(=O)(=O)c3ccccc3N2)c(O)c2ccccc2n1NCC1CCC1 |
| 6.72 | CC(C)CCn1c(=O)c(C2=NS(=O)(=O)c3cc(NS(=O)(=O)NC(=O)OCCCl)ccc3N2)c(O)c2cccnc21 |
| 6.74 | CNC(=O)COc1ccc2c(c1)S(=O)(=O)NC(c1c(O)c3cccnc3n(CCC(C)C)c1=O)=N2 |
| 6.85 | CC(C)CCn1c(=O)c(C2=NS(=O)(=O)c3cc(OCC#N)ccc3N2)c(O)c2cccnc21 |
| 6.88 | CCOC(=O)c1cccc(NS(=O)(=O)Nc2ccc3c(c2)S(=O)(=O)N=C(c2c(O)c4cccnc4n(CCC(C)C)c2=O)N3)c1 |
| 6.89 | COC(=O)c1ccccc1NS(=O)(=O)Nc1ccc2c(c1)S(=O)(=O)N=C(c1c(O)c3cccnc3n(CCC(C)C)c1=O)N2 |
| 6.92 | CC(C)CCn1c(=O)c(C2=NS(=O)(=O)c3cc(NS(=O)(=O)N(C)C(=O)OCc4ccccc4)ccc3N2)c(O)c2cccnc21 |
| 6.92 | CC(C)CCn1c(=O)c(C2=NS(=O)(=O)c3cc(NCC#N)ccc3N2)c(O)c2cccnc21 |
| 6.94 | CC(C)CCn1c(=O)c(C2=NS(=O)(=O)c3cc(NS(=O)(=O)Nc4cccc(C(=O)O)c4)ccc3N2)c(O)c2cccnc21 |
| 6.97 | CC(C)CCn1c(=O)c(C2=NS(=O)(=O)c3cc(NS(=O)(=O)NCCO)ccc3N2)c(O)c2cccnc21 |
| 7.02 | CC(C)CCn1c(=O)c(C2=NS(=O)(=O)c3cc(NS(=O)(=O)NC(=O)OCCOCc4ccccc4)ccc3N2)c(O)c2cccnc21 |
| 7.06 | C=CCOC(=O)NS(=O)(=O)Nc1ccc2c(c1)S(=O)(=O)N=C(c1c(O)c3cccnc3n(CCC(C)C)c1=O)N2 |
| 7.06 | COCCOC(=O)NS(=O)(=O)Nc1ccc2c(c1)S(=O)(=O)NC(c1c(O)c3cccnc3n(CCC(C)C)c1=O)=N2 |
| 7.14 | C#CCOC(=O)NS(=O)(=O)Nc1ccc2c(c1)S(=O)(=O)N=C(c1c(O)c3cccnc3n(CCC(C)C)c1=O)N2 |
| 7.17 | CC(C)CCn1c(=O)c(C2=NS(=O)(=O)c3cc(NS(=O)(=O)NC4CCCCC4)ccc3N2)c(O)c2cccnc21 |
| 7.20 | COC(=O)NS(=O)(=O)Nc1ccc2c(c1)S(=O)(=O)N=C(c1c(O)c3cccnc3n(CCC(C)C)c1=O)N2 |
| 7.21 | CCOC(=O)COC(=O)NS(=O)(=O)Nc1ccc2c(c1)S(=O)(=O)NC(c1c(O)c3cccnc3n(CCC(C)C)c1=O)=N2 |
| 7.24 | CC(C)CCn1c(=O)c(C2=NS(=O)(=O)c3cc(NS(=O)(=O)NC(=O)OCc4ccccc4)ccc3N2)c(O)c2cccnc21 |
| 7.24 | COc1ccccc1CNS(=O)(=O)Nc1ccc2c(c1)S(=O)(=O)N=C(c1c(O)c3cccnc3n(CCC(C)C)c1=O)N2 |
| 7.29 | CC(C)CCn1c(=O)c(C2=NS(=O)(=O)c3cc(NS(=O)(=O)N4CCCCC4)ccc3N2)c(O)c2cccnc21 |
| 7.30 | CC(C)CCn1c(=O)c(C2=NS(=O)(=O)c3cc(NS(=O)(=O)NC(=O)OCC(=O)O)ccc3N2)c(O)c2cccnc21 |
| 7.32 | COC(=O)c1ccc(NS(=O)(=O)Nc2ccc3c(c2)S(=O)(=O)N=C(c2c(O)c4cccnc4n(CCC(C)C)c2=O)N3)cc1 |
| 7.34 | CC(C)CCn1c(=O)c(C2=NS(=O)(=O)c3cc(OCC(N)=O)ccc3N2)c(O)c2cccnc21 |

| pIC50 | Compound |
| --- | --- |
| 7.37 | CC(C)CCn1c(=O)c(C2=NS(=O)(=O)c3cc(NS(=O)(=O)Nc4cccc(C(=O)NCC(N)=O)c4)ccc3N2)c(O)c2cccnc21 |
| 7.37 | CNC(=O)c1ccc(NS(=O)(=O)Nc2ccc3c(c2)S(=O)(=O)N=C(c2c(O)c4cccnc4n(CCC(C)C)c2=O)N3)cc1 |
| 7.37 | CC(C)CCn1c(=O)c(C2=NS(=O)(=O)c3cc(NS(=O)(=O)Nc4cccc(C(N)=O)c4)ccc3N2)c(O)c2cccnc21 |
| 7.39 | CC(C)CCn1c(=O)c(C2=NS(=O)(=O)c3cc(NS(=O)(=O)c4ccccc4)ccc3N2)c(O)c2cccnc21 |
| 7.39 | CC(C)CCn1c(=O)c(C2=NS(=O)(=O)c3cc(NS(=O)(=O)Nc4ccccc4)ccc3N2)c(O)c2cccnc21 |
| 7.41 | CC(C)CCn1c(=O)c(C2=NS(=O)(=O)c3cc(NS(=O)(=O)NC4CCCC4)ccc3N2)c(O)c2cccnc21 |
| 7.46 | CC(C)CCn1c(=O)c(C2=NS(=O)(=O)c3cc(NS(=O)(=O)NC(=O)OCCC#N)ccc3N2)c(O)c2cccnc21 |
| 7.49 | CC(C)CCn1c(=O)c(C2=NS(=O)(=O)c3cc(NS(=O)(=O)NC4CCNCC4)ccc3N2)c(O)c2cccnc21 |
| 7.57 | CC(C)CCn1c(=O)c(C2=NS(=O)(=O)c3cc(NS(=O)(=O)N4CCCC4)ccc3N2)c(O)c2cccnc21 |
| 7.62 | CC(C)CCn1c(=O)c(C2=NS(=O)(=O)c3cc(NS(=O)(=O)N4CCC4)ccc3N2)c(O)c2cccnc21 |
| 7.66 | CCCCS(=O)(=O)Nc1ccc2c(c1)S(=O)(=O)NC(c1c(O)c3cccnc3n(CCC(C)C)c1=O)=N2 |
| 7.68 | CC(C)CCn1c(=O)c(C2=NS(=O)(=O)c3cc(NS(=O)(=O)NC(=O)OCCN)ccc3N2)c(O)c2cccnc21 |
| 7.70 | CC(C)CCn1c(=O)c(C2=NS(=O)(=O)c3cc(NS(=O)(=O)NCCC(N)=O)ccc3N2)c(O)c2cccnc21 |
| 7.70 | CC(C)CCn1c(=O)c(C2=NS(=O)(=O)c3cc(NS(=O)(=O)Nc4ccc(C(=O)O)cc4)ccc3N2)c(O)c2cccnc21 |
| 7.74 | CC(C)CCn1c(=O)c(C2=NS(=O)(=O)c3cc(NS(=O)(=O)Nc4ccc(C(N)=O)cc4)ccc3N2)c(O)c2cccnc21 |
| 7.74 | CC(C)CCn1c(=O)c(C2=NS(=O)(=O)c3cc(NS(=O)(=O)NCCc4ccccc4)ccc3N2)c(O)c2cccnc21 |
| 7.82 | COc1cccc(CNS(=O)(=O)Nc2ccc3c(c2)S(=O)(=O)N=C(c2c(O)c4cccnc4n(CCC(C)C)c2=O)N3)c1 |
| 7.85 | CNS(=O)(=O)Nc1ccc2c(c1)S(=O)(=O)NC(c1c(O)c3cccnc3n(CCC(C)C)c1=O)=N2 |
| 8.00 | CC(C)CCn1c(=O)c(C2=NS(=O)(=O)c3cc(NS(=O)(=O)NCCN)ccc3N2)c(O)c2cccnc21 |
| 8.00 | COc1ccc(CNS(=O)(=O)Nc2ccc3c(c2)S(=O)(=O)N=C(c2c(O)c4cccnc4n(CCC(C)C)c2=O)N3)cc1 |
| 8.05 | CC(C)CCn1c(=O)c(C2=NS(=O)(=O)c3cc(NS(N)(=O)=O)ccc3N2)c(O)c2cccnc21 |
| 8.10 | CC(C)CCn1c(=O)c(C2=NS(=O)(=O)c3cc(NS(=O)(=O)C(C)C)ccc3N2)c(O)c2cccnc21 |
| 8.26 | CC(C)CCn1c(=O)c(C2=NS(=O)(=O)c3cc(NS(=O)(=O)NCc4ccccc4)ccc3N2)c(O)c2cccnc21 |
| 8.28 | NS(=O)(=O)Nc1ccc2c(c1)S(=O)(=O)N=C(c1c(O)c3cccnc3n(NC3CCC3)c1=O)N2 |
